According to patent US20130281494A1, “POLYMORPHS OF N-(6-(4-CHLOROPHENOXY)HEXYL)-N'-CYANO-N"-(4-PYRIDYL)GUANIDINE, AND PREPARATION THEREOF AND USE THEREOF” (Tianjin Michele Sci-Tech Development Co., Ltd., priority 2010, published 2013):

Legend:
[1] = Stability of polymorphs exposed to the air at room temperature for 12 months, purity by HPLC; format: physicochemical; conditions: for Original Purity: before exposure; for Purity (after exposed for 12 months): exposed to the air at room temperature for 12 months
Description: The obtained purity results thereof were shown s follows.
The purities were measured by using high performance liquid chromatography under the following conditions.
Chromatographic Column. […] ODS (150*4.6 mm, 5μ)
Phase A: 11.5% (v/v) of acetonitrile aqueous solution containing 0.01 mol/L of lauryl sodium sulfate and 0.0125 mol/L of dipotassium hydrogen phosphate (adjusted to pH 2.5 with phosphoric acid)
Column Temperature: 40° C.;
Detection Wavelength: 278 nm;

[2] = system: human lung cancer and breast cancer cell lines; conditions: cited from earlier work
[3] = system: human lung cancer tumor xenograft; conditions: cited from earlier work
[4] = system: human tumor cells; conditions: nude mouse transplanted with human tumor cells; cited from earlier work

With `N#C/N=C(\NCCCCCCOc1ccc(Cl)cc1)Nc1ccncc1` [Polymorph VI, N-(6-(4-chlorophenoxy)hexyl)-N′-cyano-N″-(4-pyridyl)guanidine] the “Original Purity” value [1] was 99.55% and the “Purity (after exposed for 12 months)” value [1] was 99.28%.
With `N#C/N=C(\NCCCCCCOc1ccc(Cl)cc1)Nc1ccncc1` [Polymorph IV, N-(6-(4-chlorophenoxy)hexyl)-N′-cyano-N″-(4-pyridyl)guanidine] the “Original Purity” value [1] was 99.59% and the “Purity (after exposed for 12 months)” value [1] was 99.45%.
With `N#C/N=C(\NCCCCCCOc1ccc(Cl)cc1)Nc1ccncc1` [Polymorph V, N-(6-(4-chlorophenoxy)hexyl)-N′-cyano-N″-(4-pyridyl)guanidine] the “Original Purity” value [1] was 95.82% and the “Purity (after exposed for 12 months)” value [1] was 95.02%.
With `N#C/N=C(\NCCCCCCOc1ccc(Cl)cc1)Nc1ccncc1` [Polymorph I, N-(6-(4-chlorophenoxy)hexyl)-N′-cyano-N″-(4-pyridyl)guanidine] the “Original Purity” value [1] was 98.01% and the “Purity (after exposed for 12 months)” value [1] was 97.49%.
In the case of `N#C/N=C(\NCCCCCCOc1ccc(Cl)cc1)Nc1ccncc1` [Polymorph III, N-(6-(4-chlorophenoxy)hexyl)-N′-cyano-N″-(4-pyridyl)guanidine], the “Original Purity” value [1] is reported as 97.83% and the “Purity (after exposed for 12 months)” value [1] is reported as 97.56%.
With `N#C/N=C(\NCCCCCCOc1ccc(Cl)cc1)Nc1ccncc1` [Polymorph II, N-(6-(4-chlorophenoxy)hexyl)-N′-cyano-N″-(4-pyridyl)guanidine] the “Original Purity” value [1] was 99.45% and the “Purity (after exposed for 12 months)” value [1] was 99.36%.
In the case of `N#C/N=C(\NCCCCCCOc1ccc(Cl)cc1)Nc1ccncc1` [N-(6-(4-chlorophenoxy)hexyl)-N′-cyano-N″-(4-pyridyl)guanidine], the “antiproliferative activity in vitro” value [2] is given as “high antiproliferative activity”, the “antitumor activity in the nude mice model” value [3] is given as “potent antitumor activity” and the “antitumor activity in vivo” value [4] is given as “highly potent antitumor activity”.
